Test results: patent US20080248008A1, “Inhibitors of Protein Kinase a Anchoring” (priority 2004, published 2008)

Experiments:
PKA-RIIα = PKA-RIIα (Homo sapiens, UniProt P13861); assay: Solid phase pull down from T cell lysate, PKA-RIIα; type: binding; parameters: endogenous in cells; host or cells: Jurkat T cells (lysate); conditions: overnight
Protocol: Solid phase assay and cell lysate. 5×10^6 Y1 cells or 20×10^6 Jurkat T cells lysed in 150 mM NaCl, 1% NP-40, 0.5% deoxycholate, 0.1% SDS and 50 mM Tris HCl (7.8) were incubated overnight at 4° C. with MEME3 and SM3 peptides synthesized on membranes (Autospot, Intavis, AG). The membranes were washed two times for 10 minutes in lysis buffer and thereafter in high salt lysis buffer (1 M NaCl) before boiling in SDS-PAGE loading buffer.
Solid phase pull down (see schematic illustration in FIG. 24A, left panel) was performed to analyse endogenous PKA binding to MEME3. MEME3 and SM3 peptides synthesized in triplicate on membranes were incubated overnight in T cell lysate, thereafter bound proteins were eluted, subjected to 10% PAGE electrophoresis and analysed by immunoblotting (FIG. 11). The presence of PKA subunits was assessed by immunoblotting using specific antibodies against PKA-RIα and PKA-RIIα subunits.

PKA-C subunit = assay: Coimmunoprecipitation of PKA kinase activity from HEK293 cells; type: biochemical, human
Protocol: Coimmunoprecipitation of PKA kinase activity. Cells at 50-80% confluency were transfected by using FuGENE (Roche Biochemicals). Five micrograms of plasmid DNA (GFP-AKAP-is-V5His, GFP-Scrambled-AKAP-is-V5His, GFP-MEME3-V5H is-and GFP-Scrambled-MEME3-V5His) was transfected into HEK293-cells. Cells were lysed 24 h later in 20 mM Hepes, pH 7.5/150 mM NaCl/1 mM EDTA/1% Triton X-100. MEME3 and the other peptides was immunoprecipitated. PKA kinase assays were performed by the filter paper assay (Corbin and Reimann, 1974, Methods Enzymol., 38, 287-294). The protein kinase inhibitor (PKI) residues 5-24 peptide was used as a specific inhibitor of the kinase (Scott et al., 1986, PNAS, 83, 1613-1616).
The specific activity (pmol/min per IP) of PKA-C subunit from HEK293 cells co-precipitating with chimeric MEME3 fusion protein was measured by a phosphotransferase assay using Kemptide as a substrate (Kemp et al., J. Biol. Chem. 252, p 4888-4894, 1977; Roskoski, R. Methods Enzymol. 99, p 3-6, 1983) in the absence and presence of cAMP (FIG. 12). Specific PKA activity was abrogated when PKI (5-24) peptide (10 μM) was added to the reaction mixture. The MEME3 fusion protein coprecipitated 17-fold more PKA-C activity than the RIIα-selective peptide, AKAP-is (IS) (Alto et al., 2003, supra). […] The accumulated data from three independent experiments are shown.

RI (A98S) = biological target: T1, RI (A98S) (Bos taurus, UniProt P00514, A98S); assay: R-overlay (solid-phase binding) of 32P-labelled RI on membrane-synthesized peptides; parameters: species or system bovine
T1 construct: made in house; host or cells: E. coli BL21 (B121 [sic])
Protocol: Autospot Peptide Array. Peptide arrays were synthesized on cellulose paper by using an Autospot Robot ASP222 (ABiMED, Langenfeld, Germany) as described (Frank, R., 1992, Tetrahedron 48, 123-132) or Multipep automated peptide synthesizer (INTAVIS Bioanalytical Instruments AG, Koeln, Germany) as described (Frank, R., 1992, Tetrahedron 48, 123-132).
R-overlay. R-overlays were conducted as described, using ^32P-labeled recombinant murine RII (Hausken, Z. E., et al., 1998 in Protein Targeting Protocols, ed. Clegg, R. A. (Humana, Totowa, N.J.), Vol. 88, pp. 47-64) or recombinant bovine RI (A98S) or by cold RI-overlay where bound RIα was detected by Western blot. Cold RI-overlay was performed by incubating the membranes with 250 nM RI overnight at 4° C., then the membranes were washed five times in TBST for 5 min. Detection of RI was performed using an anti-RI rabbit polyclonal antibody (Santa Cruz) at a concentration of 0.2 μg/μl for 1 hour at 4° C. Then the membranes were washed five times for 5 minutes in PBS followed by incubation with HRP-conjugated anti-rabbit IgGs (1:5000) for 1 hour at 4° C. The membranes were washed in PBS as described above before detection by Supersignal West Dura Extended Duration Substrate (Pierce).
Densitometric analysis. The densitometric analysis was performed using Scion Image (www.scioncorp.com) (Scion Coorperation, Mo., USA) or Quantity One version 4.5.0, (BioRad).

T1 sequence (P00514 whole entry A98S): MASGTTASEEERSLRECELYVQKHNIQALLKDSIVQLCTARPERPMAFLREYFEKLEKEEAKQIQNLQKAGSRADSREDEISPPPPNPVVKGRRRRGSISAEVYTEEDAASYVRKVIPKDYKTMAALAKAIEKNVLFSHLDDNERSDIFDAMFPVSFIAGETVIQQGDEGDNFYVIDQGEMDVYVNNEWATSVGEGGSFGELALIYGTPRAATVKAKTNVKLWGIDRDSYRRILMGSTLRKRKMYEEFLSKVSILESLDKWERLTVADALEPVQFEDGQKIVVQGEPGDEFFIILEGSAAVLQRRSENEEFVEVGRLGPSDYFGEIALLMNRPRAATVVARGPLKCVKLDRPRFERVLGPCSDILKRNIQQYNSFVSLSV
PKA-RIIα, sequence (P13861 whole entry): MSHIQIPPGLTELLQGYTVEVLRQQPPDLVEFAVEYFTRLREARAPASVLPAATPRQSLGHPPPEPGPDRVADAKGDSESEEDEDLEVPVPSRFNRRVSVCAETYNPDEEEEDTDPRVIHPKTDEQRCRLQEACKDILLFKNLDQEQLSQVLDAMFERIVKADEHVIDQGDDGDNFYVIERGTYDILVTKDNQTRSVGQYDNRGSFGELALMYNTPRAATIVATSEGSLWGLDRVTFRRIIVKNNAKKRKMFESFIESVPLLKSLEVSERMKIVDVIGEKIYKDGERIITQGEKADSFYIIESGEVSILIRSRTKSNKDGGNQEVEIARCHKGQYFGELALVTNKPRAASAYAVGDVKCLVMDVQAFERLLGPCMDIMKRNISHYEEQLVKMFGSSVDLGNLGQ

Compound	immobilization of PKA-RIIα (PKA-RIIα)	coprecipitated kinase activity (PKA-C subunit)	competition of RI-binding to membrane-bound MEME3 (RI (A98S); 500 nM peptide in solution)	affinity for RI compared to that of PDSM (RI (A98S); densitometry of autoradiographs, n=3, higher) [times]	RI binding (RI-32P-overlay, autoradiography) (RI (A98S); peptides on membrane, qualitative)	coprecipitated PKA-C activity relative to AKAP-is (IS) (PKA-C subunit; Kemptide substrate, three experiments) [fold]
IEKELAQQYQNADAITLE [SM3, scrambled MEME3 negative control peptide, reference compound]	Neither PKA-RIα nor PKA-RIIα bound	No kinase activity was detected	–	–	–	–
CC[C@H](C)[C@H](NC(=O)[C@H](CCC(N)=O)NC(=O)[C@H](CC(=O)O)NC(=O)[C@H](C)NC(=O)[C@H](CC(C)C)NC(=O)[C@H](CCC(N)=O)NC(=O)[C@H](CC(N)=O)NC(=O)[C@H](C)NC(=O)[C@H](Cc1ccc(O)cc1)NC(=O)[C@H](CCC(N)=O)NC(=O)[C@H](CCC(=O)O)NC(=O)[C@@H](N)CC(C)C)C(=O)N[C@H](C(=O)N[C@@H](CCCCN)C(=O)N[C@@H](CCC(=O)O)C(=O)N[C@@H](C)C(=O)N[C@H](C(=O)N[C@@H](CCC(=O)O)C(=O)N[C@@H](CCCCNC(=O)c1ccc2c(c1)C(=O)OC21c2ccc(O)cc2Oc2cc(O)ccc21)C(N)=O)[C@@H](C)O)[C@@H](C)CC [MEME3]	not PKA-RIIα	–	competed the RI-binding	1.9	bound with high affinity to RIα	17
